Assay results published in the supplement of paper PMC10307832.

What was measured:
Experiment in all cases: relative viability (nuclei count vs DMSO), 5 days (fraction); higher = more cells survive
[1] = compound: CC(O)(CS(=O)(=O)c1ccc(F)cc1)C(=O)Nc1ccc(C#N)c(C(F)(F)F)c1 [Bicalutamide] + O=C(CCCCCCC(=O)Nc1ccccc1)NO [Vorinostat] (partner 1 µM)
Procedure, shortened: (§1)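 The day after seeding in 1536-well plates, lung cancer cell lines were treated by pin tool with a single drug, or with a fixed anchor-drug dose together with five library-drug doses (not always all listed) in √10 steps. After 5 days, a combined fix-and-stain solution (final 0.05% Triton X-100, 1% formaldehyde, 1 ug/ml Hoechst) was added. Nuclei counted on 4× images gave relative viability as treated counts over vehicle counts, reported as the median of duplicate plates.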

[2] = compound: CC(O)(CS(=O)(=O)c1ccc(F)cc1)C(=O)Nc1ccc(C#N)c(C(F)(F)F)c1 [Bicalutamide] + COc1cccc2cc(-c3nc([C@H]4CC[C@H](C(=O)O)CC4)n4ncnc(N)c34)[nH]c12 [OSI-027] (partner 0.5 µM)
Procedure, shortened: as §1

[3] = compound: CC(O)(CS(=O)(=O)c1ccc(F)cc1)C(=O)Nc1ccc(C#N)c(C(F)(F)F)c1 [Bicalutamide] + Cc1nc(NC(=O)N2CCC[C@H]2C(N)=O)sc1-c1ccnc(C(C)(C)C(F)(F)F)c1 [Alpelisib] (partner 2 µM)
Procedure, shortened: as §1

[4] = compound: CC(O)(CS(=O)(=O)c1ccc(F)cc1)C(=O)Nc1ccc(C#N)c(C(F)(F)F)c1 [Bicalutamide] + C[C@]1(O)C[C@@H](c2nc(-c3ccc4ccc(-c5ccccc5)nc4c3)c3c(N)nccn32)C1 [Linsitinib] (partner 1 µM)
Procedure, shortened: as §1

Cell Line	relative viability ([1]; first compound 0.08 µM)	relative viability ([1]; first compound 0.253 µM)	relative viability ([1]; first compound 0.8 µM)	relative viability ([1]; first compound 2.53 µM)	relative viability ([2]; first compound 0.08 µM)	relative viability ([2]; first compound 0.253 µM)	relative viability ([2]; first compound 0.8 µM)	relative viability ([2]; first compound 2.53 µM)	relative viability ([3]; first compound 0.08 µM)	relative viability ([3]; first compound 0.253 µM)	relative viability ([3]; first compound 0.8 µM)	relative viability ([3]; first compound 2.53 µM)	relative viability ([4]; first compound 0.08 µM)	relative viability ([4]; first compound 0.253 µM)	relative viability ([4]; first compound 0.8 µM)	relative viability ([4]; first compound 2.53 µM)
NCI-H522	1.01	0.862	0.99	0.77	0.726	0.685	0.775	0.641								
HCC-15	0.746	0.761	0.954	0.899	0.71	0.612	0.908	0.571	0.935	0.897	0.985	0.86	0.826	0.837	0.932	0.969
A-427	0.883	0.9	0.866	0.842	0.489	0.479	0.584	0.398	1.07	1.09	1.19	0.992	1.16	1.15	1.21	1.18
NCI-H23	0.758	0.498	0.697	0.465	0.721	0.544	0.605	0.495	0.692	0.693	0.885	0.557	0.584	0.526	0.498	0.454
NCI-H1734	0.85	0.701	1.05	0.673	0.66	0.473	0.614	0.488	0.676	0.59	0.884	0.683	0.87	0.76	0.947	0.863
NCI-H1993	0.864	0.675	0.787	0.705	0.479	0.594	0.523	0.511		0.693	0.708	0.717		0.77	0.707	0.738
PC-3 [JPC-3]	0.809	0.887	1.14	0.808	0.797	0.808	0.768	0.737	1.08	1.01	1.09	1.07	0.927	1.02	0.986	1.02
NCI-H1915	0.536	0.456	0.584	0.522	0.639	0.516	0.653	0.535	1.07	1.12	1.14	1.01	1.11	1.13	1.1	1.03
NCI-H1666	0.921	1.05	1.14	0.981	0.911	0.866	0.916	0.831	1.01	0.889	1.13	0.942	0.814	0.8	0.932	0.955
HCC-366	0.368	0.331	0.52	0.134	0.955	0.848	1.08	0.718	0.476	0.255	0.465	0.37	0.659	0.541	0.905	0.624
SK-MES-1	1.21	1.07	1.19	1.03	0.601	0.607	0.665	0.491	0.903	0.718	1.02	0.858	1.14	1.07	1.07	1.04
NCI-H727	1.38	1.08	1.24	1.19	0.573	0.546	0.623	0.442	0.63	0.546	0.471	0.483	0.234	0.356	0.295	0.269
RERF-LC-KJ	0.779	0.606	0.864	0.564	0.679	0.56	0.563	0.543	0.756	0.81	0.948	0.777	0.868	0.85	0.94	0.904
NCI-H1623					0.43	0.447	0.487	0.531								
Calu-6									1.04	0.908	1.04	0.868	0.972	0.999	1.12	0.98
LC-2-ad	0.767	0.679	0.67	0.556	0.962	0.718	0.885	0.684	0.99	0.921	0.852	0.894	0.818	0.796	0.847	0.891
CAL-12T	0.945	0.607	0.915	0.623	0.574	0.638	0.72	0.431	1.39	1.09	1.44	1.1	0.69	0.777	1.04	0.814
SK-LU-1	0.871	0.856	0.82	0.699	0.371	0.39	0.358	0.276	1.12	0.962	1.41	0.848	1.24	1.29	1.17	0.817
NCI-H1650	0.685	0.586	0.581	0.611	0.71	0.552	0.744	0.649								
BEN	0.537	0.719	0.588	0.617	0.265	0.299	0.274	0.276	0.89	0.991	1.36	1.01	1.04	0.802	1.26	0.966
EMC-BAC-2	0.5	0.434	0.833	0.289	0.404	0.374	0.364	0.246	0.702	0.674	0.791	0.694	0.854	0.796	0.803	0.756
LU99A	0.461	0.436	0.626	0.43	0.282	0.258	0.345	0.233	0.625	0.447	0.603	0.402	0.512	0.486	0.566	0.47
ABC-1	1.06	0.805	1.5	0.947	0.46	0.448	0.45	0.454	1.03	1.21	0.997	0.992	0.912	0.889	0.768	0.861
NCI-H2170	0.794	0.741	0.867	0.803	0.765	0.636	0.668	0.705	0.834	0.767	0.853	0.842				

Cell Line	relative viability ([1]; first compound 0.08 µM)	relative viability ([1]; first compound 0.253 µM)	relative viability ([1]; first compound 0.8 µM)	relative viability ([1]; first compound 2.53 µM)	relative viability ([2]; first compound 0.08 µM)	relative viability ([2]; first compound 0.253 µM)	relative viability ([2]; first compound 0.8 µM)	relative viability ([2]; first compound 2.53 µM)	relative viability ([3]; first compound 0.08 µM)	relative viability ([3]; first compound 0.253 µM)	relative viability ([3]; first compound 0.8 µM)	relative viability ([3]; first compound 2.53 µM)	relative viability ([4]; first compound 0.08 µM)	relative viability ([4]; first compound 0.253 µM)	relative viability ([4]; first compound 0.8 µM)	relative viability ([4]; first compound 2.53 µM)
NCI-H1299									1.11	1.13	1.08	1.11	1.04	1.03	1.17	1.01
EBC-1									0.885	0.845	0.828	0.776	0.874	0.874	1.05	0.858
NCI-H2405	1.09	0.985	1.49	0.975	0.651	0.568	0.624	0.632	0.789	0.775	0.827	0.775	0.897	0.873	1.06	0.901
NCI-H2009	0.732	0.719	0.898	0.71	0.756	0.641	0.74	0.347	1.25	1.14	1.13	1.18	1.19	1.12	1.16	1.16
NCI-H441	0.924	0.755	0.778	0.751	0.689	0.585	0.669	0.534	0.968		0.856	0.876	0.6		0.863	0.404
PC-14	0.854	0.605	0.732	0.574	0.825	0.697	1.6	0.606	0.916	0.952	0.969	0.869	0.968	0.967	0.976	1.04
HARA	0.469	0.477	0.586	0.517	0.633	0.361	0.744	0.483	1.01	0.767	0.931	0.876	0.953	0.797	1.06	1.1
NCI-H2126	0.716	0.712	0.931	0.75	0.681	0.619	0.673	0.755	0.742	0.707	0.76	0.74	0.737	0.724	0.731	0.68
NCI-H1437	0.839	0.832	0.875	0.859	0.969	0.776	0.973	0.841	1.02	0.988	1.24	0.954	1.01	1	1.28	0.965
NCI-H2342	0.759	0.767	0.853	0.801	0.629	0.593	0.63	0.551								
NCI-H1792					0.731	0.634	0.855	0.768	0.722	0.656	0.794	0.665	0.585	0.412	0.549	0.48
ChaGo-K-1	0.763	0.691	0.887	0.772	0.566	0.48	0.631	0.516								
NCI-H661	0.768	0.805	0.771	0.806	0.719	0.691	0.839	0.699	0.594	0.591	0.833	0.829	0.538	0.63	0.612	0.61
COR-L23	0.443	0.486	0.411	0.267	0.814	0.751	0.955	0.705	0.846	0.757	0.843	0.727	0.997	0.919	1.16	0.732
COR-L 105	0.983	0.712	0.944	0.717	0.644	0.555	0.614	0.572	0.957	0.89	1	0.83	0.941	0.93	0.899	0.815
LK-2	0.346	0.339	0.354	0.311	0.195	0.189	0.194	0.207	1.21	0.878	1.44	1.16	0.715	0.349	0.64	0.657
201T	1.11	0.957	1.05	0.977	0.727	0.609	0.735	0.736	1.05	0.93	1.01	1	1.04	1.02	1.07	1.04
A549									0.878	0.685	0.889	0.733	0.567	0.531	0.696	0.527
NCI-H1563					0.764	0.698	0.804	0.65	0.944	0.95	0.897	0.779	1.28	1.2	1.12	1.07
SW 900	0.601	0.281	0.394	0.398	0.498	0.531	0.572	0.347								
IA-LM	0.985	0.803	1.16	0.892					0.801	0.793	0.964	0.782	0.823	0.641	0.616	0.646
NCI-H1703									0.321	0.243	0.332	0.262	0.815	0.79	0.833	0.495
NCI-H1648			0.698	0.425		0.299	0.29	0.225								
